Among the test systems are XF498; Malme-3M; SK-MEL-2; SNB-78; MDA-N; DMS-273; SF-268; DMS-114; SNB-19; M14; HCT-15; UACC-257; CCRF-CEM; T47D; MDA-MB-435; OVCAR-4; HCT-116; CAKI-1; 786-0; UACC-62.
What all share (assay): DTP human tumour cell line panel, 48 h

The term GI50 denotes the concentration giving 50% growth inhibition.

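Each compound was tested at five concentrations against cells in 96-well plates for 48 hours. GI50 marks 50% less growth.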 Active and inactive are the calls of the source. Rule as the data show it: active = GI50 up to about 1.1 µM and inactive = higher. A value given as a limit tells only on which side of the number the result lay.

With `CNC1C(O)CC(OC2C/C=C(\C)C/C(C)=C/C=C/CCC(C)CNC(=O)/C=C/C=C/C2C)OC1C` (centres undefined), the GI50 in the experiment with XF498 was 1.68 µM (inactive); in the experiment with Malme-3M, 1.47 µM (inactive); in the experiment with SK-MEL-2, 1.19 µM (inactive); with SNB-78 it was 1.66 µM (inactive); with MDA-N, 0.34 µM (active); in the experiment with DMS-273, 0.188 µM (active). The GI50 was 0.746 µM (active) with SF-268; 0.463 µM (active) in the experiment with DMS-114; 2.84 µM (inactive) with SNB-19; 0.24 µM (active) with M14; 0.202 µM in the experiment with HCT-15; 0.667 µM (active) with UACC-257. For the same molecule, the GI50 in the experiment on CCRF-CEM was 0.153 µM (active); in the experiment on T47D, 0.783 µM (active); in the experiment on MDA-MB-435, 0.377 µM (active); with OVCAR-4 it was 0.303 µM (active); in the experiment with HCT-116 it was 0.278 µM (active); with CAKI-1, 0.877 µM (active). For the same molecule, the GI50 in the experiment on 786-0 was 0.245 µM (active); with UACC-62, 0.44 µM (active).
With `CCCNC(=S)NNC(=O)CSc1nc(-c2ccccc2)c(-c2ccccc2)[nH]1`, the GI50 was 47.4 µM (inactive) in the experiment on XF498; 22.1 µM (inactive) with Malme-3M; > 100 µM (inactive) in the experiment on SK-MEL-2; > 100 µM (inactive) with SNB-78; 34.8 µM (inactive) in the experiment on DMS-273; > 100 µM (inactive) with SF-268. Further, the GI50 is > 100 µM (inactive) with DMS-114; 88.1 µM (inactive) in the experiment with SNB-19; 24.1 µM (inactive) in the experiment with M14; 49.3 µM with HCT-15; 45.6 µM (inactive) in the experiment with UACC-257; 38.1 µM (inactive) in the experiment with CCRF-CEM. Moreover, the GI50 with OVCAR-4 is 45.1 µM (inactive); in the experiment on HCT-116, 94.4 µM (inactive); in the experiment with CAKI-1, 33.3 µM (inactive); with 786-0 it was 37 µM (inactive); in the experiment on UACC-62, > 100 µM (inactive).
As for `O=c1[nH]c(C2CCCCC2)nc2c(Cl)cccc12`, the GI50 in the experiment on XF498, in the experiment with Malme-3M, with SK-MEL-2, with SNB-78, with DMS-273 and in the experiment on SF-268 was > 100 µM (inactive) each time. Further, the GI50 in the experiment on DMS-114 is > 100 µM (inactive); in the experiment with SNB-19, > 100 µM (inactive); with M14, > 100 µM (inactive); in the experiment with HCT-15, greater than 100 µM; in the experiment on UACC-257 it was > 100 µM (inactive); in the experiment with CCRF-CEM, > 100 µM (inactive). In addition, the GI50 in the experiment with OVCAR-4, with HCT-116, with CAKI-1, with 786-0 and in the experiment on UACC-62 was > 100 µM (inactive) throughout.

For the origin of these results see ChEMBL document CHEMBL1201862, “PubChem BioAssay data set” (2004).
